Test results taken from ChEMBL document CHEMBL4420075, “Seriniquinones, melanoma-specific anticancer agents” (2016).

Assays:
Assay type in all cases: functional
[1] = system: SK-MEL-28; test: Growth inhibition of human SK-MEL-28 cells assessed as cell growth incubated for 48 hrs by sulforhodamine B assay; parameters: concentration or dose not given beside the values
[2] = system: UO-31; test: Growth inhibition of human UO31 cells assessed as cell growth incubated for 48 hrs by sulforhodamine B assay; parameters: concentration or dose not given beside the values
[3] = system: NCI-H322M; test: Growth inhibition of human NCI-H322M cells assessed as cell growth incubated for 48 hrs by sulforhodamine B assay; parameters: scale not given: the % may be the effect or the level left
[4] = system: HCT-15; test: Growth inhibition of human HCT15 cells assessed as cell growth incubated for 48 hrs by sulforhodamine B assay; parameters: scale not given: the % may be the effect or the level left
[5] = system: M14; test: Growth inhibition of human M14 cells assessed as cell growth incubated for 48 hrs by sulforhodamine B assay; parameters: concentration or dose not given beside the values
[6] = system: HL-60(TB); test: Growth inhibition of human HL-60(TB) cells assessed as cell growth incubated for 48 hrs by sulforhodamine B assay; parameters: concentration or dose not given beside the values
[7] = system: HT-29; test: Growth inhibition of human HT-29 cells assessed as cell growth incubated for 48 hrs by sulforhodamine B assay; parameters: concentration or dose not given beside the values
[8] = system: A498; test: Growth inhibition of human A498 cells assessed as cell growth incubated for 48 hrs by sulforhodamine B assay; parameters: concentration or dose not given beside the values
[9] = system: SK-MEL-5; test: Growth inhibition of human SK-MEL-5 cells assessed as cell growth incubated for 48 hrs by sulforhodamine B assay; parameters: concentration or dose not given beside the values
[10] = system: SF-268; test: Growth inhibition of human SF268 cells assessed as cell growth incubated for 48 hrs by sulforhodamine B assay; parameters: concentration or dose not given beside the values
[11] = system: OVCAR-8; test: Growth inhibition of human OVCAR8 cells assessed as cell growth incubated for 48 hrs by sulforhodamine B assay; parameters: concentration or dose not given beside the values
[12] = system: SW-620; test: Growth inhibition of human SW620 cells assessed as cell growth incubated for 48 hrs by sulforhodamine B assay; parameters: concentration or dose not given beside the values
[13] = system: DU-145; test: Growth inhibition of human DU145 cells assessed as cell growth incubated for 48 hrs by sulforhodamine B assay; parameters: concentration or dose not given beside the values
[14] = system: OVCAR-4; test: Growth inhibition of human OVCAR4 cells assessed as cell growth incubated for 48 hrs by sulforhodamine B assay; parameters: concentration or dose not given beside the values
[15] = system: NCI/ADR-RES; test: Growth inhibition of human NCI/ADR-RES cells assessed as cell growth incubated for 48 hrs by sulforhodamine B assay; parameters: concentration or dose not given beside the values
[16] = system: NCI-H226; test: Growth inhibition of human NCI-H226 cells assessed as cell growth incubated for 48 hrs by sulforhodamine B assay; parameters: concentration or dose not given beside the values
[17] = system: LOX IMVI; test: Growth inhibition of human LOXIMVI cells assessed as cell growth incubated for 48 hrs by sulforhodamine B assay; parameters: concentration or dose not given beside the values
[18] = system: IGROV-1; test: Growth inhibition of human IGROV1 cells assessed as cell growth incubated for 48 hrs by sulforhodamine B assay; parameters: scale not given: the % may be the effect or the level left
[19] = system: OVCAR-3; test: Growth inhibition of human OVCAR3 cells assessed as cell growth incubated for 48 hrs by sulforhodamine B assay; parameters: concentration or dose not given beside the values
[20] = system: RPMI-8226; test: Growth inhibition of human RPMI8226 cells assessed as cell growth incubated for 48 hrs by sulforhodamine B assay; parameters: concentration or dose not given beside the values
[21] = system: TK-10; test: Growth inhibition of human TK10 cells assessed as cell growth incubated for 48 hrs by sulforhodamine B assay; parameters: concentration or dose not given beside the values
[22] = system: Hs-578T; test: Growth inhibition of human Hs 578T cells assessed as cell growth incubated for 48 hrs by sulforhodamine B assay; parameters: concentration or dose not given beside the values
[23] = system: K562; test: Growth inhibition of human K562 cells assessed as cell growth incubated for 48 hrs by sulforhodamine B assay; parameters: concentration or dose not given beside the values
[24] = system: RXF 393; test: Growth inhibition of human RXF393 cells assessed as cell growth incubated for 48 hrs by sulforhodamine B assay; parameters: concentration or dose not given beside the values
[25] = system: U-251; test: Growth inhibition of human U251 cells assessed as cell growth incubated for 48 hrs by sulforhodamine B assay; parameters: concentration or dose not given beside the values
[26] = system: UACC-62; test: Growth inhibition of human UACC62 cells assessed as cell growth incubated for 48 hrs by sulforhodamine B assay; parameters: concentration or dose not given beside the values
[27] = system: SK-OV-3; test: Growth inhibition of human SKOV3 cells assessed as cell growth incubated for 48 hrs by sulforhodamine B assay; parameters: concentration or dose not given beside the values
[28] = system: MOLT-4; test: Growth inhibition of human MOLT4 cells assessed as cell growth incubated for 48 hrs by sulforhodamine B assay; parameters: concentration or dose not given beside the values
[29] = system: HCT-116; test: Growth inhibition of human HCT116 cells assessed as cell growth incubated for 48 hrs by sulforhodamine B assay; parameters: concentration or dose not given beside the values
[30] = system: CCRF-CEM; test: Growth inhibition of human CCRF-CEM cells assessed as cell growth incubated for 48 hrs by sulforhodamine B assay; parameters: concentration or dose not given beside the values
[31] = system: ACHN; test: Growth inhibition of human ACHN cells assessed as cell growth incubated for 48 hrs by sulforhodamine B assay; parameters: scale not given: the % may be the effect or the level left
[32] = system: SK-MEL-2; test: Growth inhibition of human SK-MEL-2 cells assessed as cell growth incubated for 48 hrs by sulforhodamine B assay; parameters: concentration or dose not given beside the values
[33] = system: MCF7; test: Growth inhibition of human MCF7 cells assessed as cell growth incubated for 48 hrs by sulforhodamine B assay; parameters: concentration or dose not given beside the values
[34] = system: SNB-19; test: Growth inhibition of human SNB19 cells assessed as cell growth incubated for 48 hrs by sulforhodamine B assay; parameters: concentration or dose not given beside the values
[35] = system: COLO 205; test: Growth inhibition of human COLO205 cells assessed as cell growth incubated for 48 hrs by sulforhodamine B assay; parameters: concentration or dose not given beside the values
[36] = system: SN12C; test: Growth inhibition of human SN12C cells assessed as cell growth incubated for 48 hrs by sulforhodamine B assay; parameters: concentration or dose not given beside the values
[37] = system: KM12; test: Growth inhibition of human KM12 cells assessed as cell growth incubated for 48 hrs by sulforhodamine B assay; parameters: concentration or dose not given beside the values
[38] = system: HOP-62; test: Growth inhibition of human HOP62 cells assessed as cell growth incubated for 48 hrs by sulforhodamine B assay; parameters: concentration or dose not given beside the values
[39] = system: A549; test: Growth inhibition of human A549/ATCC cells assessed as cell growth incubated for 48 hrs by sulforhodamine B assay; parameters: concentration or dose not given beside the values
[40] = system: SNB-75; test: Growth inhibition of human SNB75 cells assessed as cell growth incubated for 48 hrs by sulforhodamine B assay; parameters: concentration or dose not given beside the values
[41] = system: NCI-H522; test: Growth inhibition of human NCI-H522 cells assessed as cell growth incubated for 48 hrs by sulforhodamine B assay; parameters: concentration or dose not given beside the values
[42] = system: NCI-H460; test: Growth inhibition of human NCI-H460 cells assessed as cell growth incubated for 48 hrs by sulforhodamine B assay; parameters: concentration or dose not given beside the values
[43] = system: PC-3; test: Growth inhibition of human PC3 cells assessed as cell growth incubated for 48 hrs by sulforhodamine B assay; parameters: concentration or dose not given beside the values
[44] = system: SF-539; test: Growth inhibition of human SF539 cells assessed as cell growth incubated for 48 hrs by sulforhodamine B assay; parameters: scale not given: the % may be the effect or the level left
[45] = system: CAKI-1; test: Growth inhibition of human Caki1 cells assessed as cell growth incubated for 48 hrs by sulforhodamine B assay; parameters: concentration or dose not given beside the values
[46] = system: MDA-MB-435; test: Growth inhibition of human MDA-MB-435 cells assessed as cell growth incubated for 48 hrs by sulforhodamine B assay; parameters: concentration or dose not given beside the values
[47] = system: Malme-3M; test: Growth inhibition of human MALME-3M cells assessed as cell growth incubated for 48 hrs by sulforhodamine B assay; parameters: scale not given: the % may be the effect or the level left
[48] = system: SR; test: Growth inhibition of human SR cells assessed as cell growth incubated for 48 hrs by sulforhodamine B assay; parameters: concentration or dose not given beside the values
[49] = system: T47D; test: Growth inhibition of human T47D cells assessed as cell growth incubated for 48 hrs by sulforhodamine B assay; parameters: concentration or dose not given beside the values
[50] = system: BT-549; test: Growth inhibition of human BT549 cells assessed as cell growth incubated for 48 hrs by sulforhodamine B assay; parameters: concentration or dose not given beside the values
[51] = system: HCC 2998; test: Growth inhibition of human HCC2998 cells assessed as cell growth incubated for 48 hrs by sulforhodamine B assay; parameters: concentration or dose not given beside the values
[52] = system: OVCAR-5; test: Growth inhibition of human OVCAR5 cells assessed as cell growth incubated for 48 hrs by sulforhodamine B assay; parameters: scale not given: the % may be the effect or the level left
[53] = system: MDA-MB-468; test: Growth inhibition of human MDA-MB-468 cells assessed as cell growth incubated for 48 hrs by sulforhodamine B assay; parameters: concentration or dose not given beside the values
[54] = system: 786-0; test: Growth inhibition of human 786-0 cells assessed as cell growth incubated for 48 hrs by sulforhodamine B assay; parameters: concentration or dose not given beside the values
[55] = system: HOP-92; test: Growth inhibition of human HOP92 cells assessed as cell growth incubated for 48 hrs by sulforhodamine B assay; parameters: concentration or dose not given beside the values
[56] = system: SF-295; test: Growth inhibition of human SF295 cells assessed as cell growth incubated for 48 hrs by sulforhodamine B assay; parameters: concentration or dose not given beside the values
[57] = system: NCI-H23; test: Growth inhibition of human NCI-H23 cells assessed as cell growth incubated for 48 hrs by sulforhodamine B assay; parameters: concentration or dose not given beside the values
[58] = system: MDA-MB-231; test: Growth inhibition of human MDA-MB-231 cells assessed as cell growth incubated for 48 hrs by sulforhodamine B assay; parameters: concentration or dose not given beside the values
[59] = system: UACC-257; test: Growth inhibition of human UACC257 cells assessed as cell growth incubated for 48 hrs by sulforhodamine B assay; parameters: concentration or dose not given beside the values

## O=C([O-])CCc1ccc2c(=O)c3sc4c(=O)c5ccccc5c(=O)c4c3c(=O)c2c1.[Na+]
[1]
  Activity: -86.88%
[2]
  Activity: -62.16%
[3]
  Activity: -96.32%
[4]
  Activity: -51.47%
[5]
  Activity: -92.46%
[6]
  Activity: -1.51%
[7]
  Activity: -35.38%
[8]
  Activity: -94.19%
[9]
  Activity: -98.11%
[10]
  Activity: -4.66%
[11]
  Activity: -11.99%
[12]
  Activity: -35.47%
[13]
  Activity: -94.06%
[14]
  Activity: 3.01%
[15]
  Activity: -16.65%
[16]
  Activity: -50.22%
[17]
  Activity: -79.48%
[18]
  Activity: -45.75%
[19]
  Activity: -20.41%
[20]
  Activity: -23.33%
[21]
  Activity: -13.65%
[22]
  Activity: -2.26%
[23]
  Activity: 1.66%
[24]
  Activity: -40.51%
[25]
  Activity: -19.72%
[26]
  Activity: -86.72%
[27]
  Activity: -20.08%
[28]
  Activity: -18.02%
[29]
  Activity: -11.85%
[30]
  Activity: -11.89%
[31]
  Activity: 3.07%
[32]
  Activity: -61.62%
[33]
  Activity: -42.17%
[34]
  Activity: -46.21%
[35]
  Activity: -95.3%
[36]
  Activity: -86.04%
[37]
  Activity: -4.86%
[38]
  Activity: -94.95%
[39]
  Activity: -52.48%
[40]
  Activity: -92.01%
[41]
  Activity: -56.08%
[42]
  Activity: -47.6%
[43]
  Activity: 4.12%
[44]
  Activity: -99.93%
[45]
  Activity: -11.28%
[46]
  Activity: -79.57%
[47]
  Activity: -95.72%
[48]
  Activity: -13.25%
[49]
  Activity: 30.96%
[50]
  Activity: -93.17%
[51]
  Activity: -78.44%
[52]
  Activity: -91.27%
[53]
  Activity: -23.55%
[54]
  Activity: -36.85%
[55]
  Activity: 21.71%
[56]
  Activity: -92.24%
[57]
  Activity: -48.38%
[58]
  Activity: 7.51%
[59]
  Activity: -93.7%
